Key:
galium = experiment: Test C pre-/postemergence herbicide test; type: in vivo, Galium aparine
Summary of the method: (§1)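 Response scores range from 0, meaning no effect, to 100, meaning complete control, assigned visually by comparison with controls roughly two weeks (13 to 15 days) after spraying. Applications were made preemergence to seeded loam–sand soil and postemergence to 1- to 4-leaf plants.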

velvetleaf = experiment: Test C pre-/postemergence herbicide test; type: in vivo, Abutilon theophrasti; conditions: for Velvetleaf plant response rating: scale 0 to 100, 0 is no effect and 100 is complete control
Summary of the method: as §1

foxtail, giant = experiment: Test C pre-/postemergence herbicide test; type: in vivo, Setaria faberii
Summary of the method: as §1

sedge, umbrella = experiment: Test C flooded paddy test; type: in vivo, Cyperus difformis; conditions: Flood
Summary of the method: (§2)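 Ratings reflect visual comparison with controls on a 0–100 scale, where 100 is complete control. Compound is dosed into standing paddy water 3 cm deep over 2-leaf-stage plants, kept in the greenhouse 13 to 15 days.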

barnyardgrass = experiment: Test C pre-/postemergence herbicide test; type: in vivo, Echinochloa crus-galli; conditions: for Barnyardgrass plant response rating: scale 0 to 100, 0 is no effect and 100 is complete control
Summary of the method: as §1

kochia = experiment: Test C pre-/postemergence herbicide test; type: in vivo, Kochia scoparia
Summary of the method: as §1

rice = experiment: Test C flooded paddy test; type: in vivo, Oryza sativa; conditions: Flood
Summary of the method: as §2

blackgrass = experiment: Test C pre-/postemergence herbicide test; type: in vivo, Alopecurus myosuroides
Summary of the method: as §1

[1] = Postemergence, 31 g ai/ha, scale 0 (no effect) to 100 (complete control)
[2] = Postemergence, 62 g ai/ha, scale 0 to 100 (0 no effect, 100 complete control)
[3] = Postemergence, 125 g ai/ha, scale 0 to 100 (0 no effect, 100 complete control)
[4] = Postemergence, 250 g ai/ha, scale 0 to 100 (0 no effect, 100 complete control)
[5] = Preemergence, 31 g ai/ha, scale 0 to 100, 0 is no effect and 100 is complete control
[6] = Preemergence, 62 g ai/ha, scale 0 to 100
[7] = Preemergence, 125 g ai/ha, scale 0 to 100 (0 no effect, 100 complete control)
[8] = 125 g ai/ha, scale of 0 to 100 where 0 is no effect and 100 is complete control, 13 to 15 days
[9] = Preemergence, 31 g ai/ha, scale 0 to 100 (0 no effect, 100 complete control)
[10] = Preemergence, 250 g ai/ha, scale 0 to 100 (0 no effect, 100 complete control)
[11] = 31 g ai/ha, scale of 0 to 100 where 0 is no effect and 100 is complete control, 13 to 15 days
[12] = 62 g ai/ha, scale of 0 to 100 where 0 is no effect and 100 is complete control, 13 to 15 days

In the case of `O=C1NCC(c2ccc(F)c(F)c2)C1C(=O)Nc1cccc(F)c1F` (racemic) [Compound 101], the “Plant response rating, Galium” value (galium; [1]) was 50, the “Plant response rating, Galium” value (galium; [2]) was 50 and the “Plant response rating, Galium” value (galium; [3]) was 30. For the same molecule, the “Plant response rating, Galium” value (galium; [4]) was 70, the “Galium plant response rating” value (galium; [5]) was 0 and the “Plant response rating, Galium” value (galium; [6]) was 40. For the same molecule, the “Plant response rating, Galium” value (galium; [7]) was 90, the “Plant response rating (scale of 0 to 100), Galium” value (galium; Preemergence, 250 g ai/ha) was 85 and the “Plant response rating, Velvetleaf” value (velvetleaf; [1]) was 0. For the same molecule, the “Plant response rating, Velvetleaf” value (velvetleaf; [2]) was 0, the “Plant response rating, Velvetleaf” value (velvetleaf; [3]) was 10 and the “Plant response rating, Velvetleaf” value (velvetleaf; [4]) was 30. For the same molecule, the “Velvetleaf plant response rating” value (velvetleaf; Preemergence, 31 g ai/ha) was 15, the “Plant response rating, Velvetleaf” value (velvetleaf; [6]) was 0 and the “Plant response rating, Velvetleaf” value (velvetleaf; [7]) was 5. The “Plant response rating (scale of 0 to 100), Velvetleaf” value (velvetleaf; Preemergence, 250 g ai/ha) was 70, the “Plant response rating, Foxtail, Giant” value (foxtail, giant; [1]) was 0 and the “Plant response rating, Foxtail, Giant” value (foxtail, giant; [2]) was 20. For the same molecule, the “Plant response rating, Foxtail, Giant” value (foxtail, giant; [3]) was 75, the “Plant response rating, Foxtail, Giant” value (foxtail, giant; [4]) was 90 and the “Foxtail, Giant plant response rating” value (foxtail, giant; [5]) was 95. The “Plant response rating, Foxtail, Giant” value (foxtail, giant; [6]) was 95, the “Plant response rating, Foxtail, Giant” value (foxtail, giant; [7]) was 98 and the “Plant response rating (scale of 0 to 100), Foxtail, Giant” value (foxtail, giant; Preemergence, 250 g ai/ha) was 98. For the same molecule, the “Plant response rating, Sedge, Umbrella” value (sedge, umbrella; [8]) was 0, the “Plant response rating, Sedge, Umbrella” value (sedge, umbrella; 250 g ai/ha, scale 0 to 100) was 0 and the “Plant response rating, Sedge, Umbrella” value (sedge, umbrella; 500 g ai/ha, scale 0 to 100) was 0. For the same molecule, the “Plant response rating, Sedge, Umbrella” value (sedge, umbrella; 1000 g ai/ha, scale 0 to 100) was 0, the “Plant response rating, Barnyardgrass” value (barnyardgrass; [1]) was 0 and the “Plant response rating, Barnyardgrass” value (barnyardgrass; [2]) was 35. For the same molecule, the “Plant response rating, Barnyardgrass” value (barnyardgrass; [3]) was 65, the “Plant response rating, Barnyardgrass” value (barnyardgrass; [4]) was 90 and the “Barnyardgrass plant response rating” value (barnyardgrass; Preemergence, 31 g ai/ha) was 90. For the same molecule, the “Plant response rating, Barnyardgrass” value (barnyardgrass; [6]) was 95, the “Plant response rating, Barnyardgrass” value (barnyardgrass; [7]) was 95 and the “Plant response rating (scale of 0 to 100; 0 is no effect, 100 is complete control), Barnyardgrass” value (barnyardgrass; Preemergence, 250 g ai/ha) was 95. For the same molecule, the “Plant response rating, Kochia” value (kochia; [1]) was 45, the “Plant response rating, Kochia” value (kochia; [2]) was 30 and the “Plant response rating, Kochia” value (kochia; [3]) was 50. The “Plant response rating, Kochia” value (kochia; [4]) was 50, the “Plant response rating, Rice” value (rice; [8]) was 0 and the “Plant response rating, Rice” value (rice; 250 g ai/ha, scale 0 to 100) was 0. The “Plant response rating, Rice” value (rice; 500 g ai/ha, scale 0 to 100) was 0, the “Plant response rating, Rice” value (rice; 1000 g ai/ha, scale 0 to 100) was 10 and the “Plant response rating, Blackgrass” value (blackgrass; [1]) was 0. The “Plant response rating, Blackgrass” value (blackgrass; [2]) was 0, the “Plant response rating, Blackgrass” value (blackgrass; [3]) was 10 and the “Plant response rating, Blackgrass” value (blackgrass; [4]) was 5. The “Blackgrass plant response rating” value (blackgrass; [5]) was 0, the “Plant response rating, Blackgrass” value (blackgrass; [6]) was 50 and the “Plant response rating, Blackgrass” value (blackgrass; [7]) was 70. For the same molecule, the “Plant response rating (scale of 0 to 100), Blackgrass” value (blackgrass; Preemergence, 250 g ai/ha) was 90.
In the case of `O=C1NCC(c2ccc(Cl)c(F)c2)C1C(=O)Nc1cccc(F)c1F` (centres unmarked) [Compound 52], the “Plant response rating, Galium” value (galium; [6]) was 0, the “Plant response rating, Galium” value (galium; [7]) was 90 and the “Galium plant response rating” value (galium; [9]) was 0. For the same molecule, the “Plant response rating, Galium” value (galium; [10]) was 90, the “Plant response rating, Velvetleaf” value (velvetleaf; [1]) was 10 and the “Plant response rating, Velvetleaf” value (velvetleaf; [2]) was 20. For the same molecule, the “Plant response rating, Velvetleaf” value (velvetleaf; [3]) was 20, the “Plant response rating, Velvetleaf” value (velvetleaf; [4]) was 35 and the “Plant response rating, Velvetleaf” value (velvetleaf; [6]) was 5. The “Plant response rating, Velvetleaf” value (velvetleaf; [7]) was 5, the “Plant response rating, Foxtail, Giant” value (foxtail, giant; [1]) was 0 and the “Plant response rating, Foxtail, Giant” value (foxtail, giant; [2]) was 0. The “Plant response rating, Foxtail, Giant” value (foxtail, giant; [3]) was 0, the “Plant response rating, Foxtail, Giant” value (foxtail, giant; [4]) was 25 and the “Plant response rating, Foxtail, Giant” value (foxtail, giant; [6]) was 80. For the same molecule, the “Plant response rating, Foxtail, Giant” value (foxtail, giant; [7]) was 80, the “Foxtail, Giant plant response rating” value (foxtail, giant; [9]) was 55 and the “Plant response rating, Foxtail, Giant” value (foxtail, giant; [10]) was 85. The “Plant response rating, Sedge, Umbrella” value (sedge, umbrella; [11]) was 0, the “Plant response rating, Sedge, Umbrella” value (sedge, umbrella; [12]) was 40 and the “Plant response rating, Sedge, Umbrella” value (sedge, umbrella; [8]) was 50. The “Plant response rating, Sedge, Umbrella” value (sedge, umbrella; 250 g ai/ha, scale 0 to 100) was 75, the “Plant response rating, Kochia” value (kochia; [1]) was 30 and the “Plant response rating, Kochia” value (kochia; [2]) was 35. The “Plant response rating, Kochia” value (kochia; [3]) was 40, the “Plant response rating, Kochia” value (kochia; [4]) was 50 and the “Plant response rating, Kochia” value (kochia; [6]) was 10. The “Plant response rating, Kochia” value (kochia; [7]) was 15, the “Plant response rating, Rice” value (rice; [11]) was 10 and the “Plant response rating, Rice” value (rice; [12]) was 10. For the same molecule, the “Plant response rating, Rice” value (rice; [8]) was 10, the “Plant response rating, Rice” value (rice; 250 g ai/ha, scale 0 to 100) was 15 and the “Plant response rating, Blackgrass” value (blackgrass; [1]) was 0. The “Plant response rating, Blackgrass” value (blackgrass; [2]) was 0, the “Plant response rating, Blackgrass” value (blackgrass; [3]) was 0 and the “Plant response rating, Blackgrass” value (blackgrass; [4]) was 0. The “Plant response rating, Blackgrass” value (blackgrass; [6]) was 0, the “Plant response rating, Blackgrass” value (blackgrass; [7]) was 0 and the “Blackgrass plant response rating” value (blackgrass; [9]) was 0. For the same molecule, the “Plant response rating, Blackgrass” value (blackgrass; [10]) was 0.
With `O=C1NCC(c2ccc(C(F)(F)F)cc2)C1C(=O)Nc1cccc(F)c1F` (centres unmarked) [Compound 80, N-(2,3-difluorophenyl)-2-oxo-4-[4-(trifluoromethyl)phenyl]-3-pyrrolidinecarboxamide] the “Plant response rating, Galium” value (galium; [1]) was 5, the “Plant response rating, Galium” value (galium; [2]) was 55 and the “Plant response rating, Galium” value (galium; [3]) was 65. For the same molecule, the “Plant response rating, Galium” value (galium; [4]) was 65, the “Galium plant response rating” value (galium; [5]) was 5 and the “Plant response rating, Galium” value (galium; [6]) was 90. The “Plant response rating, Galium” value (galium; [7]) was 90, the “Plant response rating (scale of 0 to 100), Galium” value (galium; Preemergence, 250 g ai/ha) was 90 and the “Plant response rating, Velvetleaf” value (velvetleaf; [1]) was 15. For the same molecule, the “Plant response rating, Velvetleaf” value (velvetleaf; [2]) was 15, the “Plant response rating, Velvetleaf” value (velvetleaf; [4]) was 25 and the “Velvetleaf plant response rating” value (velvetleaf; Preemergence, 31 g ai/ha) was 0. The “Plant response rating, Velvetleaf” value (velvetleaf; [6]) was 30, the “Plant response rating, Velvetleaf” value (velvetleaf; [7]) was 35 and the “Plant response rating (scale of 0 to 100), Velvetleaf” value (velvetleaf; Preemergence, 250 g ai/ha) was 50. The “Plant response rating, Foxtail, Giant” value (foxtail, giant; [1]) was 0, the “Plant response rating, Foxtail, Giant” value (foxtail, giant; [2]) was 0 and the “Plant response rating, Foxtail, Giant” value (foxtail, giant; [3]) was 45. The “Plant response rating, Foxtail, Giant” value (foxtail, giant; [4]) was 45, the “Foxtail, Giant plant response rating” value (foxtail, giant; [5]) was 90 and the “Plant response rating, Foxtail, Giant” value (foxtail, giant; [6]) was 95. For the same molecule, the “Plant response rating, Foxtail, Giant” value (foxtail, giant; [7]) was 98, the “Plant response rating (scale of 0 to 100), Foxtail, Giant” value (foxtail, giant; Preemergence, 250 g ai/ha) was 98 and the “Plant response rating, Sedge, Umbrella” value (sedge, umbrella; [11]) was 35. For the same molecule, the “Plant response rating, Sedge, Umbrella” value (sedge, umbrella; [12]) was 35, the “Plant response rating, Sedge, Umbrella” value (sedge, umbrella; [8]) was 55 and the “Plant response rating, Sedge, Umbrella” value (sedge, umbrella; 250 g ai/ha, scale 0 to 100) was 65. For the same molecule, the “Plant response rating, Barnyardgrass” value (barnyardgrass; [1]) was 0, the “Plant response rating, Barnyardgrass” value (barnyardgrass; [2]) was 20 and the “Plant response rating, Barnyardgrass” value (barnyardgrass; [3]) was 35. The “Plant response rating, Barnyardgrass” value (barnyardgrass; [4]) was 70, the “Barnyardgrass plant response rating” value (barnyardgrass; Preemergence, 31 g ai/ha) was 85 and the “Plant response rating, Barnyardgrass” value (barnyardgrass; [6]) was 95. The “Plant response rating, Barnyardgrass” value (barnyardgrass; [7]) was 95, the “Plant response rating (scale of 0 to 100; 0 is no effect, 100 is complete control), Barnyardgrass” value (barnyardgrass; Preemergence, 250 g ai/ha) was 95 and the “Plant response rating, Kochia” value (kochia; [1]) was 30. For the same molecule, the “Plant response rating, Kochia” value (kochia; [2]) was 55, the “Plant response rating, Kochia” value (kochia; [3]) was 65 and the “Plant response rating, Kochia” value (kochia; [4]) was 65. For the same molecule, the “Plant response rating, Rice” value (rice; [11]) was 0, the “Plant response rating, Rice” value (rice; [12]) was 0 and the “Plant response rating, Rice” value (rice; [8]) was 0. The “Plant response rating, Rice” value (rice; 250 g ai/ha, scale 0 to 100) was 0, the “Plant response rating, Blackgrass” value (blackgrass; [1]) was 0 and the “Plant response rating, Blackgrass” value (blackgrass; [2]) was 0. For the same molecule, the “Plant response rating, Blackgrass” value (blackgrass; [3]) was 0, the “Plant response rating, Blackgrass” value (blackgrass; [4]) was 5 and the “Blackgrass plant response rating” value (blackgrass; [5]) was 30. For the same molecule, the “Plant response rating, Blackgrass” value (blackgrass; [6]) was 80, the “Plant response rating, Blackgrass” value (blackgrass; [7]) was 85 and the “Plant response rating (scale of 0 to 100), Blackgrass” value (blackgrass; Preemergence, 250 g ai/ha) was 90.

Reference: patent US10294202B2, “Pyrrolidinones as herbicides” (FMC Corporation, priority 2013, dated 2019)
